In publication PMC11052784 (European Journal of Drug Metabolism and Pharmacokinetics, 2024):
Read-outs that look alike come from different tables or passages of the source.

Columns and labels:
CYP1A2/2B6/2C19/3A = assay: Reversible inhibition in human liver microsomes; assay type: in vitro ADME; settings: HLM
CYP2C19 [1] = target: T1, CYP2C19 (Homo sapiens, UniProt P33261); assay type: in vitro ADME; settings: HLM
CYP3A4/5 = assay: Time-dependent inhibition; assay type: in vitro ADME, human; settings: HLM; for TDI of CYP3A after 30-min preincubation: incubation concentration ≥ 99.5 µM
CYP2C19 [2] = settings: cited from earlier work
[3] = after administration as tablet; cited from earlier work
CYP2B6 = settings: after multiple doses of abrocitinib 200 mg QD
CYP3A [4] = assay: Oral contraceptive DDI study; assay type: in vivo, human
Safety = assay type: in vivo, human; settings: coadministered with midazolam, caffeine, efavirenz, omeprazole or oral contraceptives; healthy adult participants
[5] = test system: pregnane X receptor (PXR) pathway; assay: Induction via the pregnane X receptor pathway; assay type: in vitro ADME; settings: data on file
CYP3A [6] = assay: Midazolam DDI study
CYP2C19 [7] = target: T1, CYP2C19
CYP1A2 = settings: with abrocitinib 200 mg QD
[8] = after multiple doses of abrocitinib 200 mg QD
[9] = abrocitinib 200 mg QD with omeprazole 10 mg single dose
[10] = with multiple doses of abrocitinib vs LN alone
[11] = multiple doses of abrocitinib 200 mg QD, Day 7 vs midazolam alone
[12] = with abrocitinib 200 mg QD on Day 2 vs midazolam alone

T1 sequence (P33261 whole entry): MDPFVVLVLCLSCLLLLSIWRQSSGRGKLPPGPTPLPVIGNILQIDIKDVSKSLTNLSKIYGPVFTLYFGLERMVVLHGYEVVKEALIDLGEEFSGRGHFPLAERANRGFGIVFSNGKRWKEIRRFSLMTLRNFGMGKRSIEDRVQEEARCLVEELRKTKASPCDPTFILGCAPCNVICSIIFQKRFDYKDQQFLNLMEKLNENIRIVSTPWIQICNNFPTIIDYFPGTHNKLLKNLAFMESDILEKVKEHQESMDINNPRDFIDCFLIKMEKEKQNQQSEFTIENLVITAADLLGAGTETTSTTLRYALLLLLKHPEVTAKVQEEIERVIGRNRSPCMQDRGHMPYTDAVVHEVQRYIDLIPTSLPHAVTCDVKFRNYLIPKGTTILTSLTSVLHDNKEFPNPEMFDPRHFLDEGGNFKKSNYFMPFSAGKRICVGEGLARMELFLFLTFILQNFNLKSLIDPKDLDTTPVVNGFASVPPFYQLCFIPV

## CC(O)CS(=O)(=O)N[C@H]1C[C@@H](N(C)c2ncnc3[nH]ccc23)C1 (some centres unmarked) [M2]
CYP1A2/2B6/2C19/3A
  Reversible inhibition of CYP1A2/2B6/2C19/3A: no reversible inhibition
CYP2C19 [1]
  TDI of CYP2C19 in the absence of NADPH: weak TDI
  TDI of CYP2C19 in the presence of NADPH: weak TDIs
CYP3A4/5
  TDI of CYP3A in the absence of NADPH: weak TDI
  TDI of CYP3A after 30-min preincubation: weak TDI
  TDI of CYP3A in the presence of NADPH: weak TDIs

## CCCS(=O)(=O)N[C@H]1C[C@@H](N(C)c2ncnc3[nH]ccc23)C1 [Abrocitinib, N-{cis-3-[Methyl(7H-pyrrolo[2,3-d]pyrimidin-4-yl)amino]cyclobutyl}propane-1-sulfo namide]
CYP2C19 [2]
  Share of abrocitinib metabolism by CYP2C19: approximately 53%
[3]
  Median Tmax of abrocitinib: ≤ 1 h
CYP2B6
  Effect of abrocitinib on the pharmacokinetics of efavirenz: lack of effect
CYP3A [4]; [8]
  Effect of abrocitinib on the pharmacokinetics of OCs: lack of effect
Safety
  Overall safety and tolerability: generally safe and well tolerated
[5]
  Induction via the PXR pathway: weak signal
CYP3A [6]; [8]
  Effect of abrocitinib on the pharmacokinetics of midazolam: lack of effect

## CN(c1ncnc2[nH]ccc12)[C@H]1C[C@@H](NS(=O)(=O)CCCO)C1 [M1]
CYP1A2/2B6/2C19/3A
  Reversible inhibition of CYP1A2/2B6/2C19/3A: no reversible inhibition
CYP2C19 [1]
  TDI of CYP2C19 in the absence of NADPH: weak TDI
  TDI of CYP2C19 in the presence of NADPH: weak TDIs
CYP3A4/5
  TDI of CYP3A in the absence of NADPH: weak TDI
  TDI of CYP3A after 30-min preincubation: weak TDI
  TDI of CYP3A in the presence of NADPH: weak TDIs

## COc1ccc2[nH]c([S+]([O-])Cc3ncc(C)c(OC)c3C)nc2c1 (centres unmarked) [Omeprazole, omeprazole]
CYP2C19 [7]; [9]
  Increase of omeprazole AUCinf: approximately 2.9 fold
  Increase of omeprazole Cmax: ~2.3 fold
CYP2C19 [7]; with multiple doses of abrocitinib 200 mg QD
  Increase of omeprazole Cmax: ~134%

## C#C[C@]1(O)CC[C@H]2[C@@H]3CCC4=CC(=O)CC[C@@H]4[C@H]3CC[C@@]21CC [Levonorgestrel, levonorgestrel]
CYP3A [4]; [10]
  Change of adjusted geometric mean AUClast: did not change
  Decrease of adjusted geometric mean Cmax: approximately 14%

## Cn1c(=O)c2c(ncn2C)n(C)c1=O [Caffeine, caffeine]
CYP1A2
  Increase of caffeine AUCinf: 1.4 fold

## Cc1ncc2n1-c1ccc(Cl)cc1C(c1ccccc1F)=NC2 [Midazolam, midazolam]
CYP3A [6]; [11]
  Decrease of adjusted geometric mean AUCinf of midazolam: approximately 7.7%
  Decrease of adjusted geometric mean Cmax of midazolam: ~6.5%
CYP3A [6]; [12]
  Decrease of adjusted geometric mean AUCinf of midazolam: approximately 15.7%
  Decrease of adjusted geometric mean Cmax of midazolam: ~13.7%
